Results: US12479794B2, “Acetophenone oxime compound and application thereof” (Medshine Discovery Inc., priority 2020, dated 2025)
Where a name gives a salt, the structure may show the parent alone. Read-outs that look alike come from different tables or passages of the source.

Assays:
[1] = molecular target: T1, S1P1 (Homo sapiens, UniProt P21453); test: In vitro agonistic activity on S1P1, U2OS-EDG1 cells, LiveBLAzer FRET B/G; type: cell-based; settings: for Emax: % Effect
T1 construct: host or cells: U2OS
T1 sequence (P21453 whole entry): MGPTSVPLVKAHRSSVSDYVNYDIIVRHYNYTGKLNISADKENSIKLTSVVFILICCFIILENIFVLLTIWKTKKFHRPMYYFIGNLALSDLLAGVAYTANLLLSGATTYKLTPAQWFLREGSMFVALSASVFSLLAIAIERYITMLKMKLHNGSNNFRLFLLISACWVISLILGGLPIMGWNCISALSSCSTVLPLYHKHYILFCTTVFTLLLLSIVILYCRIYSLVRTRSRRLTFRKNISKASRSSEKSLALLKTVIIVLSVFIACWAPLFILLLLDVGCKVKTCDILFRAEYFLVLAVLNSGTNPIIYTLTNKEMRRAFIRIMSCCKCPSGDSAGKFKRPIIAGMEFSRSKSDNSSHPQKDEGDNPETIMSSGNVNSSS
Protocol: Assay Example 1: In Vitro Evaluation of the Agonistic Activity of the Compounds of the Present Disclosure on S1P1
Object of the assay: To detect the agonistic activity of compounds on S1P1
• 1. Cells U2OS-EDG1 (Batch No.: Invitrogen-K1520) were taken out of a liquid nitrogen tank and placed in a 37° C. water bath to thaw quickly; • 2. The cell suspension was aspirated into a 15 ml centrifuge tube, resuspended in 5 ml of preheated medium, and centrifuged at 1000 rpm for 5 min; • 3. The supernatant was discarded. The cells were resuspended in 10 ml of medium, transferred into a T75 culture flask, and cultivated in an incubator with 5% CO2 at 37° C. II. Agonist Assay • 1. The compounds were diluted to working concentrations, and serially diluted 3-fold by Echo 555 (manufacturer: Labcyte) to obtain 10 concentrations; 200 nL of each concentration of the compound was transferred to a cell plate and centrifuged at 1000 rpm for 15 seconds; • 2. Culture medium was aspirated from the culture flask; 4 mL of Dulbecco's phosphate buffer (DPBS, supplier: Coring, item No.: 21-031-CVR, batch No.: 03318006) was added, and the residual serum was washed away; 2 mL of trypsin was added; The mixture was incubated in an incubator at 37° C. for 2 min, and the cells were digested; 10 mL of seeding medium was added to resuspend the cells; 0.6 mL of cell suspension was taken out and counted; • 3. The density of cells was adjusted to 1.88E+05 cells/mL using seeding medium, with 40 μL per well (7500\well); 40 μL of FreeStyle™ Expression medium was added around the cell plate; The plate was let stand at room temperature for 15 min and incubated at 37° C. with 5% CO2 for 20 hours. III. Signal Detection • 1. LiveBLAzer™-FRET B/G Substrate (CCF4-AM) assay reagents were formulated according to the instructions; • 2. 8 μL of 6×Substrate Mixture was added to each well of the cell plate; The plate was centrifuged at 1000 rpm for 15 seconds, covered with a film, and incubated at 23° C. for 2 hours; The cell plate was subjected to Envision […] detection. IV. Data Analysis • 1. The raw data were converted into % Effect by using an equation, and the EC50 value can be obtained by curve fitting with four parameters [“log(agonist) vs. response—Variable slope” model in GraphPad Prism]; • 2. Calculation formula: Ratio=(460 nm−blank)/(535 nm−blank) % Effect=(SampleRatio−Ave LCRatio)/(Ave HCRatio−Ave LCRatio)×100%

[2] = Pharmacokinetic evaluation in SD rats (iv and oral); type: in vivo, Sprague Dawley rats; settings: male, Sprague-Dawley, rat, plasma; for half-life: read-out: Half life T1/2 (PO) (converted); for clearance: read-out: Clearance rate CL; for Vd: read-out: Distribution in tissue Vdss; for bioavailability: read-out: Bioavailability F; for Cmax: read-out: Peak concentration Cmax
Protocol: Assay Example 2: Pharmacokinetic Evaluation of Compounds in Rats
Object of the assay: To evaluate the in vivo pharmacokinetics of the compounds in SD rats
Sprague Dawley rats (male, 200-300 g, 7-9 weeks old, Shanghai SLAC)
The pharmacokinetic characteristics of the compounds in rodents after intravenous injection and oral administration were assayed according to the standard protocol. In the assay, the candidate compounds were formulated into clear solutions and administered to rats by single intravenous injection and oral administration. The vehicle for intravenous injection and oral administration was DMSO and 10% hydroxypropyl β-cyclodextrin in water (DMSO:10% hydroxypropyl β-cyclodextrin in water=5:95). Whole blood samples were collected within 48 hours, and centrifuged at 3000 g for 15 minutes. The supernatant was separated to give plasma samples. 4 times the volume of acetonitrile solution containing internal standard was added to precipitate protein. The resulting mixture was centrifuged and the supernatant was taken out. An equal volume of water was added and the mixture was centrifuged. The supernatant was taken out, and injected as a sample to quantitatively analyze the plasma drug concentration by LC-MS/MS analysis method. The pharmacokinetic parameters, such as peak concentration, time to peak, clearance rate, half-life, area under drug-time curve, bioavailability, etc., were calculated.

[3] = intravenous, iv 1.0, po 2.0 mg/kg
[4] = po, 2 mg/kg, iv 1.0, po 2.0 mg/kg, PO, read-out: Area under drug-time curve AUC0-last PO

SMILES: CC(=NOCc1ccc(OC(C)C)c(C(F)(F)F)c1)c1ccc2c(c1)CCC2N1CC(C(=O)O)C1 (single isomer, unassigned) [Compound 32A]
- EC50 [1]: 3.84 nM
- Emax [1]: 101%
- half-life ([2]; intravenous, 1 mg/kg, iv 1.0 mg/kg only (head prints PO)): 7.5 h
- AUC(0-t) ([2]; iv, 1 mg/kg, iv 1.0 mg/kg, read-out: Area under drug-time curve AUC0-last iv): 6.84 µM·h
- clearance ([2]; iv, 1 mg/kg, iv 1.0 mg/kg): 4.5 mL/min/kg
- Vd ([2]; iv, 1 mg/kg, iv 1.0 mg/kg): 2.78 L/kg

SMILES: C/C(=N\OCc1ccc(C2CCCCC2)c(C(F)(F)F)c1)c1ccc2c(c1)CC(NCCC(=O)O)C2 (stereo not drawn) [Compound 1 trifluoroacetate]
- EC50 [1]: 41.6 nM
- Emax [1]: 88.4%

SMILES: C/C(=N\OCc1ccc(C2CCCCC2)c(C(F)(F)F)c1)c1ccc2c(c1)CCC2NCC1(C(=O)O)CC1 (stereo not drawn) [Compound 3 trifluoroacetate]
- EC50 [1]: 5.77 nM
- Emax [1]: 95%
- AUC(0-t) ([2]; iv 1.4, po 2.7 mg/kg, PO, read-out: Area under drug-time curve AUC0-last PO): 7.05 µM·h
- half-life ([2]; iv 1.4, po 2.7 mg/kg, PO): 11.3 h
- bioavailability ([2]; iv 1.4, po 2.7 mg/kg): 59.3%
- clearance ([2]; iv 1.4, po 2.7 mg/kg): 6.87 mL/min/kg
- Vd ([2]; iv 1.4, po 2.7 mg/kg): 5.47 L/kg
- Cmax ([2]; iv 1.4, po 2.7 mg/kg): 393 nM

SMILES: C/C(=N\OCc1ccc(OC(C)C)c(C(F)(F)F)c1)c1ccc2c(c1)CCC2NCC(=O)O (stereo not drawn) [Compound 10 hydrochloride]
- EC50 [1]: 57.2 nM
- Emax [1]: 84.2%

SMILES: C/C(=N\OCc1ccc(C2CCCCC2)c(C(F)(F)F)c1)c1ccc2c(c1)CCC2N(C)CCC(=O)O (stereo not drawn) [Compound 11 trifluoroacetate]
- EC50 [1]: 4.97 nM
- Emax [1]: 97.4%
- AUC(0-t) ([2]; iv 1.2, po 2.4 mg/kg, PO, read-out: Area under drug-time curve AUC0-last PO): 11.3 µM·h
- half-life ([2]; iv 1.2, po 2.4 mg/kg, PO): 9.08 h
- bioavailability ([2]; iv 1.2, po 2.4 mg/kg): 64%
- clearance ([2]; iv 1.2, po 2.4 mg/kg): 4.24 mL/min/kg
- Vd ([2]; iv 1.2, po 2.4 mg/kg): 3.32 L/kg
- Cmax ([2]; iv 1.2, po 2.4 mg/kg): 605 nM

SMILES: C/C(=N\OCc1ccc(OCC(C)C)c(C(F)(F)F)c1)c1ccc2c(c1)CCC2NCC1(C(=O)O)CC1 (stereo not drawn) [Compound 13 hydrochloride]
- EC50 [1]: 14.1 nM
- Emax [1]: 102%

SMILES: C/C(=N\OCc1ccc(OCC2CC2)c(C(F)(F)F)c1)c1ccc2c(c1)CCC2NCC1(C(=O)O)CC1 (stereo not drawn) [Compound 14 hydrochloride]
- EC50 [1]: 27.4 nM
- Emax [1]: 113%

SMILES: C/C(=N\OCc1ccc(C2CCCCC2)c(C(F)(F)F)c1)c1ccc2c(c1)CCC2NCCC(=O)O (stereo not drawn) [Compound 20]
- EC50 [1]: 8.92 nM
- Emax [1]: 51%

SMILES: C/C(=N\OCc1ccc(OCC2CC2)c(C(F)(F)F)c1)c1ccc2c(c1)CCC2N(C)CCC(=O)O (stereo not drawn) [Compound 21]
- EC50 [1]: 12.3 nM
- Emax [1]: 106%
- clearance [2, 3]: 5.43 mL/min/kg
- Vd [2, 3]: 2.05 L/kg
- bioavailability ([2]; iv 1.0, po 2.0 mg/kg): 53.2%
- Cmax ([2]; iv 1.0, po 2.0 mg/kg): 486 nM
- AUC(0-t) [2, 4]: 6.13 µM·h

SMILES: C/C(=N\OCc1ccc(OCC(C)C)c(C(F)(F)F)c1)c1ccc2c(c1)CCC2N(C)CCC(=O)O (stereo not drawn) [Compound 22 formate]
- EC50 [1]: 19.2 nM
- Emax [1]: 107%

SMILES: C/C(=N\OCc1ccc(OC(F)F)c(C(F)(F)F)c1)c1ccc2c(c1)CCC2N1CC(C(=O)O)C1 (stereo not drawn) [Compound 28]
- EC50 [1]: 23.1 nM
- Emax [1]: 121%

SMILES: C/C(=N\OCc1ccc(OCC(C)C)c(C(F)(F)F)c1)c1ccc2c(c1)CCC2N1CC(C(=O)O)C1 (stereo not drawn) [Compound 29]
- EC50 [1]: 8.62 nM
- Emax [1]: 103%
- clearance [2, 3]: 3.68 mL/min/kg
- Vd [2, 3]: 2.24 L/kg
- bioavailability ([2]; iv 1.0, po 2.0 mg/kg): 59.4%
- Cmax ([2]; iv 1.0, po 2.0 mg/kg): 615 nM
- AUC(0-t) [2, 4]: 9.52 µM·h

SMILES: C/C(=N\OCc1ccc(C2CCCCC2)c(C(F)(F)F)c1)c1ccc2c(c1)CCC2N1CC(C(=O)O)C1 (stereo not drawn) [Compound 30]
- EC50 [1]: 16.5 nM
- Emax [1]: 63.4%
- clearance [2, 3]: 3.93 mL/min/kg
- Vd [2, 3]: 4.19 L/kg
- bioavailability ([2]; iv 1.0, po 2.0 mg/kg): 62.1%
- Cmax ([2]; iv 1.0, po 2.0 mg/kg): 478 nM
- AUC(0-t) [2, 4]: 7.54 µM·h

SMILES: C/C(=N\OCc1ccc(OC2CCCC2)c(C(F)(F)F)c1)c1ccc2c(c1)CCC2N1CC(C(=O)O)C1 (stereo not drawn) [Compound 31]
- EC50 [1]: 10.3 nM
- Emax [1]: 105%
- clearance [2, 3]: 2.87 mL/min/kg
- Vd [2, 3]: 0.88 L/kg
- bioavailability ([2]; iv 1.0, po 2.0 mg/kg): 80.9%
- Cmax ([2]; iv 1.0, po 2.0 mg/kg): 1660 nM
- AUC(0-t) [2, 4]: 18.6 µM·h
- half-life ([2]; po, 2 mg/kg, iv 1.0, po 2.0 mg/kg, PO): 4.6 h

SMILES: C/C(=N\OCc1ccc(OCC2CC2)c(C(F)(F)F)c1)c1ccc2c(c1)CCC2N1CC(C(=O)O)C1 (stereo not drawn) [Compound 33]
- EC50 [1]: 2.98 nM
- Emax [1]: 110%

SMILES: C/C(=N\OCc1ccc(OC(C)C)c(C(F)(F)F)c1)c1ccc2c(c1)CCC2N(C)CCC(=O)O (stereo not drawn) [Compound 35]
- EC50 [1]: 6.88 nM
- Emax [1]: 101%
